Read-outs that look alike come from different tables or passages of the source.
Key:
[1] = target: ER α-glucosidase II (Rattus norvegicus, UniProt A0A8I6GFL3); assay: Purified enzyme inhibition, ER α-glucosidase II; type: biochemical; conditions: rat liver enzyme
[2] = system: DENV (serotype 2, New Guinea C isolate); assay: microbe, parasite or virus in culture; type: cell-based; conditions: Dengue virus, DENV2, 120 h; Vero cells, MOI 0.01, 5 days; mean of duplicate
[3] = target: T1, CYP1A2 (Homo sapiens, UniProt P05177); assay: CYP inhibition in human liver microsomes, CYP1A2; type: in vitro ADME
T1 sequence (P05177 1-516): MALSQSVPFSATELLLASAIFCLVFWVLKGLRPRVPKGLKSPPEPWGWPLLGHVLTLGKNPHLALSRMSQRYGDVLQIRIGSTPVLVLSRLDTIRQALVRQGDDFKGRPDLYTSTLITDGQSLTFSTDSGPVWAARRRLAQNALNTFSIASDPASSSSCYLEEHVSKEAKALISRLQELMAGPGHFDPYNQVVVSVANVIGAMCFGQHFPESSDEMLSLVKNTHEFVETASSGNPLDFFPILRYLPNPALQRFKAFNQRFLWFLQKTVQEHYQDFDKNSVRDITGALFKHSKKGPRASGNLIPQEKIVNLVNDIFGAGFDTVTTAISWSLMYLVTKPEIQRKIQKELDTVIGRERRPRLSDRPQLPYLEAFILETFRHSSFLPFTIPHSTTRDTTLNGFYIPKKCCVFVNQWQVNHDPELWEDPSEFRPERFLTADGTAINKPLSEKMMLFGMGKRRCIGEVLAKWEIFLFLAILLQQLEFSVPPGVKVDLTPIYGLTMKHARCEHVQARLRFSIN

[4] = target: CYP2C19 (Homo sapiens, UniProt P33261); assay: CYP inhibition in human liver microsomes, CYP2C19; type: in vitro ADME
CYP2C19, sequence (P33261 whole entry): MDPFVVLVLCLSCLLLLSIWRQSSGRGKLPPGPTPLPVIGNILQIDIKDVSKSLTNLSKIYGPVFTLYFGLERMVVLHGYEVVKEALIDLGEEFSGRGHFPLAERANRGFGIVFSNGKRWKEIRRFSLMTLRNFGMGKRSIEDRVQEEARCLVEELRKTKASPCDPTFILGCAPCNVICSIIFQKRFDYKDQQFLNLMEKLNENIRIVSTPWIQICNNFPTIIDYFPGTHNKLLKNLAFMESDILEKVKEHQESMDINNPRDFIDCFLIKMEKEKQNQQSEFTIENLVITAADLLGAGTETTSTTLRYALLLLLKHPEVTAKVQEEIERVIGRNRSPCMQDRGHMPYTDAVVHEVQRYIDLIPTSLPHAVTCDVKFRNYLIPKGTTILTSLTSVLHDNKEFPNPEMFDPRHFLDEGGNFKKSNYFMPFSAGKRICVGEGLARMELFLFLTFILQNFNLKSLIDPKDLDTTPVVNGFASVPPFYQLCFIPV

[5] = in vitro; type: in vitro ADME; conditions: rat, plasma
[6] = in vitro; type: in vitro ADME; conditions: dog, plasma
[7] = system: DENV2 strain S221; type: in vivo, AG129 mice
[8] = in vitro; type: cell-based; conditions: African green monkey
[9] = Guinea pig pharmacokinetics; type: in vivo, Hartley guinea pigs; conditions: Hartley; for half-life: plasma, guinea pigs
[10] = in vitro; type: in vitro ADME; conditions: mouse, microsomes
[11] = in vitro; type: in vitro ADME; conditions: rat, microsomes
[12] = physchem; conditions: aqueous buffer
[13] = in vitro; type: in vitro ADME; conditions: human, Caco-2
[14] = target: T2, ER α-glucosidase I (Bos taurus, UniProt A0A3Q1M9D9); type: cell-based
T2 sequence (A0A3Q1M9D9 1-839): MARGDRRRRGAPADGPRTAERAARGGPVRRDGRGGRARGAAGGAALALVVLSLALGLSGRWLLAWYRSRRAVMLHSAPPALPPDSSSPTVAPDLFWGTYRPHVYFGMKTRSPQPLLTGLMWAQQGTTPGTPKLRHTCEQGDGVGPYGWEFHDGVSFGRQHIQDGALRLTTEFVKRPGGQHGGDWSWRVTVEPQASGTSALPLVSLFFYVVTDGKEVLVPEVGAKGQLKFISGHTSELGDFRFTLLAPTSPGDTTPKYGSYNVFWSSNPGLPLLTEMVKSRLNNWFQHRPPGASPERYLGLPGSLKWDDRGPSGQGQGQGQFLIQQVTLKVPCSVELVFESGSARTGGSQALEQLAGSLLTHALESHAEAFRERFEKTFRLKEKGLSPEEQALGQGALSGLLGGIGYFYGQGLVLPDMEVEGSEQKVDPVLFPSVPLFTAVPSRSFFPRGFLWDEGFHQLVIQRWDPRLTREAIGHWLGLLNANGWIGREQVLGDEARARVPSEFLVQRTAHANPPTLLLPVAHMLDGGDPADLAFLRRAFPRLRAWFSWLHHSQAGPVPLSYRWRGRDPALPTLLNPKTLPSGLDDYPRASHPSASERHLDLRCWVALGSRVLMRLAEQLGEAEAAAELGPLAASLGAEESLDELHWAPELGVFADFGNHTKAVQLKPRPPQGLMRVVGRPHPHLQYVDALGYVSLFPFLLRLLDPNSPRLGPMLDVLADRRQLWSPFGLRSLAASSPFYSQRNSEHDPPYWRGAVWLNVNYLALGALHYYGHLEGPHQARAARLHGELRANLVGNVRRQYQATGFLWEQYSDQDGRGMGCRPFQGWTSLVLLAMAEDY

[15] = Mouse pharmacokinetics; type: in vivo, Swiss Albino mice; conditions: male, Swiss Albino

ER α-glucosidase II, sequence (A0A8I6GFL3 33-944): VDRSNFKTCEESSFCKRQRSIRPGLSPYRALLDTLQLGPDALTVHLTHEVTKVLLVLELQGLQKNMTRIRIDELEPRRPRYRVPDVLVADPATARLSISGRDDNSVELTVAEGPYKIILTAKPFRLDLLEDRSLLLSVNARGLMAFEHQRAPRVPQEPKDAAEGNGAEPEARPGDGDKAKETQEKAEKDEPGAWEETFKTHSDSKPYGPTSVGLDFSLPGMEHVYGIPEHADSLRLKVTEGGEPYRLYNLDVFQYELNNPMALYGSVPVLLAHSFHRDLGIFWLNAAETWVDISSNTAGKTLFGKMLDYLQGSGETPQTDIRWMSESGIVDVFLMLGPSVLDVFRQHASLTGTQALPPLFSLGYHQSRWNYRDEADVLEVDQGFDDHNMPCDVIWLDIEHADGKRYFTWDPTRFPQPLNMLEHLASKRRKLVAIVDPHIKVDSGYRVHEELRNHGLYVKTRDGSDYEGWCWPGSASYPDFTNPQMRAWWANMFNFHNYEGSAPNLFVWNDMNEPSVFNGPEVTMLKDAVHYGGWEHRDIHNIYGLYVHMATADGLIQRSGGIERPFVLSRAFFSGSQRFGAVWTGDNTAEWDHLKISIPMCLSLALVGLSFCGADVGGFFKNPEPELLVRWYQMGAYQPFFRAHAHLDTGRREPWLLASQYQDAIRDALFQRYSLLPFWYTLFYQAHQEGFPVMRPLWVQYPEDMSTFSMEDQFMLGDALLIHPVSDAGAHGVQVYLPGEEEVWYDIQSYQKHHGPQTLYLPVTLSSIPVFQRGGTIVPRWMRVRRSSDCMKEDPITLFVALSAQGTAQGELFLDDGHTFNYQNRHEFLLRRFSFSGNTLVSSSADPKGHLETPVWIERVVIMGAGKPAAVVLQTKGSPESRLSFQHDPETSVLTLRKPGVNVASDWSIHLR

OC[C@@H]1[C@@H](O)[C@H](O)[C@@H](O)CN1CCCCCCCCC1CCCO1 (some centres unmarked) [UV-12] showed an IC50 ([1]; Glc1 substrate, mean and SD, triplicate, read-out: IC50 α-glc II, Glc1) of 830 ± 370 nM, an IC50 ([1]; Glc2 substrate, mean and SD, triplicate, read-out: IC50 α-glc II, Glc2) of 1100 ± 480 nM and an IC50 ([1]; range over the two activities (Glc2, Glc1), read-out: IC50 for α-glucosidase II) of 830 to 1100 nM. The IC50 [2] was 21700 nM, the IC50 [3] was > 100000 nM and the IC50 [4] was > 100000 nM. For the same compound, the fraction unbound at 6 h, 10 μM [5] was 0.32, the fraction unbound at 6 h, 10 μM [6] was 0.28 and the “animals protected (survival)” value ([7]; 20 mg/kg PO TID 7 days from 1 h before challenge) was 100%. The “animals protected (survival)” value ([7]; 100 mg/kg PO TID 7 days from 1 h before challenge) was 100%, the CC50 at 5 days [8] was > 500000 nM and the Cmax ([9]; in vivo) was 8850 to 11600 ng/mL. For the same compound, the Tmax ([9]; in vivo) was 15 to 30 min, the AUC(0-inf) ([9]; female, in vivo, im, 100 mg/kg) was 19200 ng·h/mL and the AUC(0-t) ([9]; female, in vivo, im, 100 mg/kg) was 19100 ng·h/mL. The Cmax ([9]; female, in vivo, im, 100 mg/kg) was 11600 ng/mL, the Tmax ([9]; female, in vivo, im, 100 mg/kg) was 15 min and the bioavailability ([9]; female, in vivo, im, 100 mg/kg) was 109%. For the same compound, the “Vss relative to normal body water” value ([9]; female, in vivo, iv) was > 8 fold, the AUC(0-inf) ([9]; female, in vivo, iv, 25 mg/kg) was 4400 ± 599 ng·h/mL and the AUC(0-t) ([9]; female, in vivo, iv, 25 mg/kg) was 4370 ± 583 ng·h/mL. The Cmax ([9]; female, in vivo, iv, 25 mg/kg) was 8860 ng/mL, the Vd ([9]; female, in vivo, iv, 25 mg/kg) was 5.14 ± 0.64 L/kg and the clearance ([9]; female, in vivo, iv, 25 mg/kg) was 95.9 ± 12.7 mL/min/kg. It also gave an AUC(0-inf) ([9]; female, in vivo, sc, 100 mg/kg) of 23100 ng·h/mL, an AUC(0-t) ([9]; female, in vivo, sc, 100 mg/kg) of 23000 ng·h/mL and a Cmax ([9]; female, in vivo, sc, 100 mg/kg) of 11000 ng/mL. The Tmax ([9]; female, in vivo, sc, 100 mg/kg) was 30 min, the bioavailability ([9]; female, in vivo, sc, 100 mg/kg) was 131% and the half-life ([9]; female, IM 100 mg/kg) was 119 ± 54.6 min. The half-life ([9]; female, IV 25 mg/kg) was 84 ± 5.4 min, the half-life ([9]; female, SC 100 mg/kg) was 133 ± 22.2 min and the “Liver microsome metabolic stability CLintr” value [10] was <0.6 mL/min/g liver. The half-life at 0.5 µM [10] was > 30 min, the “parent drug remained after 30 min” value ([10]; 0.5 h, 0.5 µM) was 100% and the “Liver microsome metabolic stability CLintr” value [11] was <0.6 mL/min/g liver. The half-life at 0.5 µM [11] was > 30 min, the “parent drug remained after 30 min” value ([11]; 0.5 h, 0.5 µM) was 100% and the solubility [12] was > 100 mg/mL. For the same compound, the efflux ratio at 10 µM [13] was 4, the “cellular half-life of UV-12 inhibition (blockage of α-glucosidase I)” value [14] was 307 ± 109 min and the “reversibility of inhibition in cells” value ([14]; MDBK cells) was “reversible inhibitor”. The Cmax ([15]; in vivo) was 8880 to 12600 ng/mL, the bioavailability ([15]; in vivo) was 77% and the “CL as % of mouse liver blood flow” value ([15]; in vivo, iv) was 31%. For the same compound, the “Vss relative to total body water” value ([15]; in vivo, iv) was 3 fold, the AUC(0-inf) ([15]; in vivo, iv, 10 mg/kg) was 5910 ng·h/mL and the AUC(0-t) ([15]; in vivo, iv, 10 mg/kg) was 5900 ng·h/mL. It also gave a Cmax ([15]; in vivo, iv, 10 mg/kg) of 8880 ng/mL, a Vd ([15]; in vivo, iv, 10 mg/kg) of 1.98 L/kg and a clearance ([15]; in vivo, iv, 10 mg/kg) of 28.2 mL/min/kg. It also gave an AUC(0-inf) ([15]; in vivo, po, 100 mg/kg) of 45500 ng·h/mL, an AUC(0-t) ([15]; in vivo, po, 100 mg/kg) of 43100 ng·h/mL and a Cmax ([15]; in vivo, po, 100 mg/kg) of 12600 ng/mL. For the same compound, the Tmax ([15]; in vivo, po, 100 mg/kg) was 30 min and the half-life ([15]; plasma, mice, IV 10 mg/kg) was 115 min.

Reference: publication PMC4452912 (Viruses, 2015)
